Values of other authors in patent publication US12440499B2, “Topical composition” (MC2 Therapeutics Limited, priority 2018, dated 2025).

Settings: in presence of water

For `C=C1/C(=C\C=C2/CCC[C@]3(C)[C@@H]([C@H](C)/C=C/[C@@H](O)C4CC4)CC[C@@H]23)C[C@@H](O)C[C@@H]1O` [calcipotriol], the “pH value for maximum stability” value is given as “above 8”.
